Assay results: US9464084B2, “P2X7 modulators” (Janssen Pharmaceutica NV, priority 2013, dated 2016)

Assays:
Type in all cases: cell-based
P2X7 [1] = biological target: T1, P2X7 (Homo sapiens (Human), UniProt Q99572); assay: Ca2+ flux (FLIPR) in 1321N1 cells expressing recombinant human P2X7 channel; settings: 250 μM BzATP;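 also: Calcium-4 dye-loaded cells exposed to compound for 30 min before agonist addition, fluorescence change read 180 s after agonist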
rat P2X7 = rat P2X7 (Rattus norvegicus (Rat), UniProt Q64663); assay: Ca2+ flux (FLIPR) in 1321N1 cells expressing recombinant rat P2X7 channel; settings: 250 μM BzATP;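 also: Calcium-4 dye fluorescence change read 180 s after agonist addition, following 30 min cell preincubation with test compound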
P2X7 [2] = biological target: T1, P2X7; assay: P2X7 antagonism in human PBMCs (LPS + Bz-ATP induced IL-1β release, ELISA); settings: LPS 30 ng/ml, Bz-ATP 0.5 mM; for PBMC 10 μM (% control): compound 10 μM; for PBMC 1 μM (% control): compound 1 μM;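 as to all read-outs here: PBMCs from donor human blood, with a further 1.5 h incubation of the cells in the assay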

T1 sequence (Q99572 whole entry): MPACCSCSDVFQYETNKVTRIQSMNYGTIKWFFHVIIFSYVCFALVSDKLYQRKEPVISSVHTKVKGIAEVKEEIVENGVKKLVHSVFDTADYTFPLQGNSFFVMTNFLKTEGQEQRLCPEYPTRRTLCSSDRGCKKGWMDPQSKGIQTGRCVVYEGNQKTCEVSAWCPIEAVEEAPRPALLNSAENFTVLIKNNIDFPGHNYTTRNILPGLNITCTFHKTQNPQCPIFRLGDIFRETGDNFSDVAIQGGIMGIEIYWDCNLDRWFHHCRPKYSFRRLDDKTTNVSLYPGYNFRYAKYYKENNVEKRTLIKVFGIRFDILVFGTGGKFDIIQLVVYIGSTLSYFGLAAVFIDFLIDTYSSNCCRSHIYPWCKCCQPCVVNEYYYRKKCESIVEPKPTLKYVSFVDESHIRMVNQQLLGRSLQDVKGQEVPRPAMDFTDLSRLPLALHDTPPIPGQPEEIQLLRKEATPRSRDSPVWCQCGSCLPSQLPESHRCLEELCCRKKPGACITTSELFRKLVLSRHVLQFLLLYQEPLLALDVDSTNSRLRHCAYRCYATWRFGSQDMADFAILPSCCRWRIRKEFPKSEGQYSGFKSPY
Sequence of rat P2X7 (Q64663 whole entry): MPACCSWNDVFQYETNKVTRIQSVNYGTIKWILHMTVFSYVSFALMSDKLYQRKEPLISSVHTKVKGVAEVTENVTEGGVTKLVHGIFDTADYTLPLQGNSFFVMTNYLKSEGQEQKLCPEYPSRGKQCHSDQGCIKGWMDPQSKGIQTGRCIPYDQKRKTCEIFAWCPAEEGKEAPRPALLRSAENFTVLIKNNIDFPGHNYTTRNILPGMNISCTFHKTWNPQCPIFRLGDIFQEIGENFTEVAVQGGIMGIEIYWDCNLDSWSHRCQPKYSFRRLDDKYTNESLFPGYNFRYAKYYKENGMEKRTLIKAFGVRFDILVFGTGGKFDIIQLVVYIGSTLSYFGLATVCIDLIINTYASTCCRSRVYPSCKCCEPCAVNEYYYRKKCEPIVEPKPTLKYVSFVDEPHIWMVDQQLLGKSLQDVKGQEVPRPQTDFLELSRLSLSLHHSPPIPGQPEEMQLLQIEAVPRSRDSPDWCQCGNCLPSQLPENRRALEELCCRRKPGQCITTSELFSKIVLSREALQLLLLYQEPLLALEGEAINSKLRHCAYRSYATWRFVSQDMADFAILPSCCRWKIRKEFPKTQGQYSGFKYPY

| Structure (SMILES) | IC50 (P2X7 [1]) [µM] | IC50 (rat P2X7) [µM] | PBMC 10 μM (% control) (P2X7 [2]) | PBMC 1 μM (% control) (P2X7 [2]) |
| --- | --- | --- | --- | --- |
| C[C@@H]1c2nnn(-c3cccc(F)n3)c2CCN1C(=O)c1cccc(C(F)(F)F)c1Cl (single isomer, unassigned) [Example 146, (R*)-(2-chloro-3-(trifluoromethyl)phenyl)(1-(6-fluoropyridin-2-yl)-4-methyl-6,7-dihydro-1H-[1,2,3]triazolo[4,5-c]pyridin-5(4H)-yl)methanone] | 2.7 | > 10 | 30.9 |  |
| C[C@@H]1Cc2c(nnn2-c2ncccn2)CN1C(=O)c1cccc(C(F)(F)F)c1Cl (single isomer, unassigned) [Example 221, (6R*)-5-{[2-Chloro-3-(trifluoromethyl)phenyl]carbonyl}-6-methyl-1-pyrimidin-2-yl-4,5,6,7-tetrahydro-1H-[1,2,3]triazolo[4,5-c]pyridine] | 0.506 | 6.68 | 17.8 |  |
| CC1C=CN=C(n2nnc3c2CCN(C(=O)c2cccc(C(F)(F)F)c2Cl)[C@@H]3C)N1 (single isomer, unassigned) [Example 234, (4R*)-(2-Chloro-3-(trifluoromethyl)phenyl)((4R)-4-methyl-1-(6-methyl-1,6-dihydropyrimidin-2-yl)-6,7-dihydro-1H-[1,2,3]triazolo[4,5-c]pyridin-5(4H)-yl)methanone] | 0.2 | 2 | −40.9 |  |
| C[C@@H]1c2nnn(-c3cncnc3)c2CCN1C(=O)c1cccc(C(F)(F)F)c1Cl (single isomer, unassigned) [Example 334, (R*)-(2-chloro-3-(trifluoromethyl)phenyl)(4-methyl-1-(pyrimidin-5-yl)-6,7-dihydro-1H-[1,2,3]triazolo[4,5-c]pyridin-5(4H)-yl)methanone] | > 10 | > 10 | 101.8 |  |
| CC(C)C1c2ncn(-c3cnccn3)c2CCN1C(=O)c1cccc(C(F)(F)F)c1Cl (stereo not drawn) [Example 16, (2-Chloro-3-(trifluoromethyl)phenyl)(4-isopropyl-1-(pyrazin-2-yl)-6,7-dihydro-1H-imidazo[4,5-c]pyridin-5(4H)-yl)methanone] | 0.104 | 0.456 |  | 8.5 |
| CCOC(=O)C1c2ncn(-c3cnccn3)c2CCN1C(=O)c1cccc(C(F)(F)F)c1Cl (stereo not drawn) [Example 28, Ethyl 5-{[2-chloro-3-(trifluoromethyl)phenyl]carbonyl}-1-pyrazin-2-yl-4,5,6,7-tetrahydro-1H-imidazo[4,5-c]pyridine-4-carboxylate] | 0.0138 | 0.0165 |  | 4.8 |
| Cc1nc2c(n1-c1ccccc1)CCN(C(=O)c1cccc(C(F)(F)F)c1Cl)C2 [Example 37, (2-Chloro-3-(trifluoromethyl)phenyl)(2-methyl-1-phenyl-6,7-dihydro-1H-imidazo[4,5-c]pyridin-5(4H)-yl)methanone] | 0.0993 | 1.53 | −9.1 |  |
| CC1c2ncn(-c3cnccn3)c2C=CN1C(=O)c1cccc(C(F)(F)F)c1Cl (stereo not drawn) [Example 56, 5-{[2-Chloro-3-(trifluoromethyl)phenyl]carbonyl}-4-methyl-1-pyrazin-2-yl-4,5-dihydro-1H-imidazo[4,5-c]pyridine] | 0.0251 | 0.398 |  | 10.1 |
| CC1c2nnn(-c3ccc(F)cn3)c2CCN1C(=O)c1cccc(C(F)(F)F)c1Cl (stereo not drawn) [Example 71, 5-{[2-Chloro-3-(trifluoromethyl)phenyl]carbonyl}-1-(5-fluoropyridin-2-yl)-4-methyl-4,5,6,7-tetrahydro-1H-[1,2,3]triazolo[4,5-c]pyridine] | 0.049 | 0.397 | 11.1 |  |
| Cn1nc(-c2ccc(F)cc2)c2c1CN(C(=O)c1cccc(C(F)(F)F)c1Cl)CC2 [Example 106, 6-{[2-Chloro-3-(trifluoromethyl)phenyl]carbonyl}-3-(4-fluorophenyl)-1-methyl-4,5,6,7-tetrahydro-1H-pyrazolo[3,4-c]pyridine] | 0.159 | 1.58 |  | 64.4 |
